Assay results as given in patent US20240207264A1, “PHARMACEUTICAL COMPOSITIONS COMPRISING INHIBITORS OF THE ANDROGEN RECEPTOR AND USES THEREOF” (ESSA PHARMA INC., priority 2021, published 2024).

Columns and labels:
[1] = PK study, single PO dose, mice; format: in vivo; settings: male, CD-1, mouse, plasma, male CD-1 mice
Protocol: A single PO dose of Compound A in different doses in solid dispersion and at 30 mg/kg dose of Compound A in solution were administered to male CD-1 mice. Mean plasma of Compound A was measured over 24 hour period after administration of Compound A (FIG. 15C) and PK parameters were determined (Table 31).

[2] = system: VCaP tumors; assay: VCaP prostate cancer xenograft model; format: in vivo, SCID Beige male mice; settings: VCaP (amplified AR, some AR-V7), castrated male mice, Solution, qd24
[3] = 10 mg/kg, PO 10 mg/kg, Suspension A (SDD)
[4] = 30 mg/kg, PO 30 mg/kg, Solution (9% DMSO, 9% NMP, 27% solutol, 55% PEG400)
[5] = 30 mg/kg, PO 30 mg/kg, Suspension A (SDD)
[6] = 90 mg/kg, PO 90 mg/kg, Suspension A (SDD)
[7] = 270 mg/kg, PO 270 mg/kg, Suspension A (SDD)

Q: What does the source list for `CC(C)(c1ccc(OCc2ccnc(NS(C)(=O)=O)n2)cc1)c1cc(Cl)c(OCCCl)c(C#N)c1` [Compound A, N-(4-((4-(2-(3-chloro-4-(2-chloroethoxy)-5-cyanophenyl)propan-2-yl)phenoxy)methyl)pyrimidin-2-yl)methanesulfonamide]?
A: AUC(0-inf) [1, 3]: 189 µg·h/mL; AUC(0-t) [1, 3]: 177 µg·h/mL; Cmax [1, 3]: 14300 ng/mL; AUC(0-inf) [1, 4]: 352 µg·h/mL; AUC(0-t) [1, 4]: 336 µg·h/mL; Cmax [1, 4]: 32000 ng/mL; AUC(0-inf) [1, 5]: 604 µg·h/mL; AUC(0-t) [1, 5]: 565 µg·h/mL; Cmax [1, 5]: 45900 ng/mL; AUC(0-inf) [1, 6]: 1700 µg·h/mL; AUC(0-t) [1, 6]: 1570 µg·h/mL; Cmax [1, 6]: 110000 ng/mL; AUC(0-inf) [1, 7]: 2690 µg·h/mL; AUC(0-t) [1, 7]: 2310 µg·h/mL; Cmax [1, 7]: 162000 ng/mL; TGI (Tumor Growth Inhibition) ([2]; 3 mg/kg): 54%; TGI (Tumor Growth Inhibition) ([2]; 10 mg/kg): 95%; TGI (Tumor Growth Inhibition) ([2]; 30 mg/kg): >100%
